Measurements: PubChem BioAssay AID2060885 (Molecular Pharmacology Branch, DTP, NCI, 2025)

Test system: NCI-H23 complex spheroids with HUVEC/MSC, viability
Experiment: Anticancer human tumor NCI-H23 cell line growth inhibition [RAS];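 further: spheroids exposed to compound for 7 days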;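 on viability, T/C: 100% = DMSO vehicle control viability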
Conditions: for IC50: curve of first compound; for viability, T/C: stronger effect = lower value; active means viability on the fitted dose curve at most 10% of control; inactive means the rest
Method in brief: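 Agents were tested in combination matrices in half-log decrements from a top concentration at or near clinical Cmax (10 microM if undetermined). Targets were multi-cell spheroids of tumour lines plus HUVEC and MSC stromal cells.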

CCc1c2c(nc3ccc(O)cc13)-c1cc3c(c(=O)n1C2)COC(=O)[C@]3(O)CC + CCn1c(-c2cc(N3CCN(C)CC3)cnc2C(C)OC)c2c3cc(ccc31)-c1csc(n1)CC(NC(=O)C1CC1C)C(=O)N1CCCC(N1)C(=O)OCC(C)(C)C2
active: viability, T/C (second compound 0.000949 µM, first compound 0.00949 µM) 4.92% | viability, T/C (second compound 0.000949 µM, first compound 0.03 µM) 2.52% | viability, T/C (second compound 0.000949 µM, first compound 0.0949 µM) 1.86% | viability, T/C (second compound 0.000949 µM, first compound 0.3 µM) 0.88% | viability, T/C (second compound 0.003 µM, first compound 0.00949 µM) 4.98% | viability, T/C (second compound 0.003 µM, first compound 0.03 µM) 1.97% | viability, T/C (second compound 0.003 µM, first compound 0.0949 µM) 1.43% | viability, T/C (second compound 0.003 µM, first compound 0.3 µM) 1.2% | viability, T/C (second compound 0.00949 µM, first compound 0.00949 µM) 5.03% | viability, T/C (second compound 0.00949 µM, first compound 0.03 µM) 1.84% | viability, T/C (second compound 0.00949 µM, first compound 0.0949 µM) 1.75% | viability, T/C (second compound 0.00949 µM, first compound 0.3 µM) 1.2% | viability, T/C (second compound 0.03 µM, first compound 0.00949 µM) 5.17% | viability, T/C (second compound 0.03 µM, first compound 0.03 µM) 2.36% | viability, T/C (second compound 0.03 µM, first compound 0.0949 µM) 1.52% | viability, T/C (second compound 0.03 µM, first compound 0.3 µM) 1.97% | viability, T/C (second compound 0.0949 µM, first compound 0.003 µM) 10.9% | viability, T/C (second compound 0.0949 µM, first compound 0.00949 µM) 4.9% | viability, T/C (second compound 0.0949 µM, first compound 0.03 µM) 3.03% | viability, T/C (second compound 0.0949 µM, first compound 0.0949 µM) 1.77% | viability, T/C (second compound 0.0949 µM, first compound 0.3 µM) 2.09% | viability, T/C (second compound 0.3 µM, first compound 0.003 µM) 10.6% | viability, T/C (second compound 0.3 µM, first compound 0.00949 µM) 4.9% | viability, T/C (second compound 0.3 µM, first compound 0.03 µM) 2.44% | viability, T/C (second compound 0.3 µM, first compound 0.0949 µM) 2.32% | viability, T/C (second compound 0.3 µM, first compound 0.3 µM) 2.38%
inactive: viability, T/C (second compound 0.000949 µM, first compound 0.000949 µM) 40.7% | viability, T/C (second compound 0.000949 µM, first compound 0.003 µM) 21% | viability, T/C (second compound 0.003 µM, first compound 0.000949 µM) 32.5% | viability, T/C (second compound 0.003 µM, first compound 0.003 µM) 13.4% | viability, T/C (second compound 0.00949 µM, first compound 0.000949 µM) 26.2% | viability, T/C (second compound 0.00949 µM, first compound 0.003 µM) 11.2% | viability, T/C (second compound 0.03 µM, first compound 0.000949 µM) 20.6% | viability, T/C (second compound 0.03 µM, first compound 0.003 µM) 11.9% | viability, T/C (second compound 0.0949 µM, first compound 0.000949 µM) 16% | viability, T/C (second compound 0.3 µM, first compound 0.000949 µM) 15.7%
< 0.949 nM: IC50 (second compound 0.000949 µM) | IC50 (second compound 0.003 µM) | IC50 (second compound 0.00949 µM) | IC50 (second compound 0.03 µM) | IC50 (second compound 0.0949 µM) | IC50 (second compound 0.3 µM)

Nc1ccn(C2OC(CO)C(O)C2(F)F)c(=O)n1 (centres undefined) + CCn1c(-c2cc(N3CCN(C)CC3)cnc2C(C)OC)c2c3cc(ccc31)-c1csc(n1)CC(NC(=O)C1CC1C)C(=O)N1CCCC(N1)C(=O)OCC(C)(C)C2
active: viability, T/C (second compound 0.000949 µM, first compound 0.01 µM) 2.1% | viability, T/C (second compound 0.000949 µM, first compound 0.0316 µM) 2.03% | viability, T/C (second compound 0.000949 µM, first compound 0.1 µM) 1.87% | viability, T/C (second compound 0.000949 µM, first compound 0.316 µM) 1.82% | viability, T/C (second compound 0.000949 µM, first compound 1 µM) 1.3% | viability, T/C (second compound 0.003 µM, first compound 0.01 µM) 1.96% | viability, T/C (second compound 0.003 µM, first compound 0.0316 µM) 1.42% | viability, T/C (second compound 0.003 µM, first compound 0.1 µM) 1.52% | viability, T/C (second compound 0.003 µM, first compound 0.316 µM) 2.04% | viability, T/C (second compound 0.003 µM, first compound 1 µM) 1.24% | viability, T/C (second compound 0.00949 µM, first compound 0.01 µM) 1.87% | viability, T/C (second compound 0.00949 µM, first compound 0.0316 µM) 2.05% | viability, T/C (second compound 0.00949 µM, first compound 0.1 µM) 1.74% | viability, T/C (second compound 0.00949 µM, first compound 0.316 µM) 2.15% | viability, T/C (second compound 0.00949 µM, first compound 1 µM) 2.22% | viability, T/C (second compound 0.03 µM, first compound 0.01 µM) 2.82% | viability, T/C (second compound 0.03 µM, first compound 0.0316 µM) 2.27% | viability, T/C (second compound 0.03 µM, first compound 0.1 µM) 2.33% | viability, T/C (second compound 0.03 µM, first compound 0.316 µM) 1.56% | viability, T/C (second compound 0.03 µM, first compound 1 µM) 1.99% | viability, T/C (second compound 0.0949 µM, first compound 0.01 µM) 3.4% | viability, T/C (second compound 0.0949 µM, first compound 0.0316 µM) 3.37% | viability, T/C (second compound 0.0949 µM, first compound 0.1 µM) 2.4% | viability, T/C (second compound 0.0949 µM, first compound 0.316 µM) 2.14% | viability, T/C (second compound 0.0949 µM, first compound 1 µM) 2.59% | viability, T/C (second compound 0.3 µM, first compound 0.01 µM) 5.87% | viability, T/C (second compound 0.3 µM, first compound 0.0316 µM) 3.63% | viability, T/C (second compound 0.3 µM, first compound 0.1 µM) 3.14% | viability, T/C (second compound 0.3 µM, first compound 0.316 µM) 2.91% | viability, T/C (second compound 0.3 µM, first compound 1 µM) 3.48%
< 3.16 nM: IC50 (second compound 0.000949 µM) | IC50 (second compound 0.003 µM) | IC50 (second compound 0.00949 µM) | IC50 (second compound 0.03 µM) | IC50 (second compound 0.0949 µM) | IC50 (second compound 0.3 µM)
inactive: viability, T/C (second compound 0.000949 µM, first compound 0.00316 µM) 16.9% | viability, T/C (second compound 0.003 µM, first compound 0.00316 µM) 12.9% | viability, T/C (second compound 0.00949 µM, first compound 0.00316 µM) 12.6% | viability, T/C (second compound 0.03 µM, first compound 0.00316 µM) 12% | viability, T/C (second compound 0.0949 µM, first compound 0.00316 µM) 12.2% | viability, T/C (second compound 0.3 µM, first compound 0.00316 µM) 15.5%
